Data published in patent publication US9265771B2, “Method for treating Lyme disease” (Zoetis Services LLC, priority 2012, dated 2016).

How the values were obtained:
[1] = test system: B. burgdorferi; assay: Study B: microscopic examination of joints and skin at necropsy; assay type: in vivo, beagle dogs; settings: for Number of Joints with Changes as Described for Lyme disease: N = 8
Description: Thirty-two (18 male and 14 female) beagle dogs were sero-negative for Borrelia burgdorferi, not vaccinated with any Borrelia spp vaccines, and acclimated at the study facility for seven days. The study was conducted under National Research Council guidelines (1996). […] Field-caught Ixodes from the northeast USA were placed on the dogs without containment chambers for 10 days; after ticks fed to repletion, dogs were treated with two applications of an approved topical acaricide with a 30-day interval between applications.
Forty days post-challenge, and prior to antibiotic treatments, blood was collected from each dog as were two skin biopsy punch samples near tick attachment sites. Blood was collected approximately monthly post-treatment. Skin biopsies were taken near the tick attachment site on Days 48/49, 118, 146, 180, and 315. Serum antibodies to Borrelia were assayed using the IDEXX SNAP-4Dx and QC6 ELISA. In cooperation with Cornell University, serum samples were analyzed using fluorescent-bead-based multiplex assays detecting antibodies against B. burgdorferi outer surface proteins OspA, OspC, and OspF. Data were expressed as median fluorescent intensities (MFI), and shown to be specific and sensitive to provide interpretative guidelines regarding infection. The skin biopsies were collected for a polymerase chain reaction (PCR; FlaB) assay and cultured for spirochete detection. At the end of the study, blood and skin biopsies were collected and synovial tissue from the joints were harvested at necropsy.
On Day 75 and Day 89 Convenia was administered to the eight dogs in T04 (8 mg/kg bodyweight; subcutaneous injection). The other treated groups received their respective regimens daily and orally for 30 days from Days 75 to 104. […] Dogs in T01 served as infected, untreated, controls. Inter-treatment comparisons to evaluate antibiotic efficacy included clinical signs, serology, culture results and pathology.
At necropsy ten joints were harvested per each dog, formalin-fixed, stained and examined microscopically. Joints included the carpus, elbow, shoulder, stifle and tarsus on both the right and left limbs. Further, a section of skin near tick attachment sites was evaluated from each dog. There were two dogs in the Convenia group (25%) with tissues showing changes as described for Lyme disease, compared to seven controls (87.5%) and three (37.5%) to four (50.0%) dogs in the other antibiotic-treated groups (Table 7). […] The Convenia group had the lowest incidence of joint changes with six affected of 80.

[2] = dog, in vivo, sc, 8 mg/kg
Description: On Days 83 and 97, Convenia was administered (8 mg/kg bodyweight; subcutaneous injection). Treated dogs, 8 B. burgdorferi-positive and 4 controls, were compared to untreated cohorts (8 B. burgdorferi-positive, and 3 controls).

[3] = test system: B. burgdorferi; assay: Study A: Quantitative C6 (QC6) antibody ELISA in tick-infected dogs; assay type: in vivo, beagle dogs; settings: Convenia Rx Days 83 and 97
Excerpt: Three outer surface proteins (Osp) on B. burgdorferi are important for diagnosis and prevention, and are expressed by the organism in response to its local environment. […] OspF is another surface protein that is generally observed in late-stage disease. The C in […] refers to a 25-amino acid, C6 peptide in the sixth invariable region of an outer membrane lipoprotein (VIsE). Antibody against C6 is highly accurate as a serologic diagnosis of Lyme disease independent of a subject's (e.g., canine) vaccination status. Further, the generation of C6 antibodies implies an active infection with viable spirochetes. Serological methods for detecting B. burgdorfer/Lyme disease were conducted using the IDEXX qualitative SNAP-4Dx ELISA and the Quantitative C6 (Quant C6 or QC6) diagnostic kits, which are enzyme linked immunosorbent assays against the previously described 25-amino-acid C6 peptide. QC6 ELISA data, units/mL, are useful for guidance in initiating and evaluating response to therapy (See Levy S A, O'Connor T P, Hanscom J L, Shields P, et al. Quantitative measurement of a C6 antibody following antibiotic treatment of Borrelia burgdorferi antibody-positive, nonclinical dogs. Clin Vacc Immunol 2008; 15(1):115-119 and Littman M P, Goldstein R E, Labato M A, et al. ACVIM Small Animal Concensus Statement on Lyme Disease in Dogs: Diagnosis, Treatment and Prevention. J Vet Intern Med 2006; 20: 422-434).
Twenty-three adult female beagle dogs were used in this study; all were sero-negative for Borrelia, not vaccinated with any Borrelia spp vaccines, and acclimated at the study facility for seven days prior to any study activities. The study was conducted under National Research Council guidelines (1996. Dogs were randomized to a non-infected control (n=7 dogs) group, or infected groups (n=8 dogs/region) using ticks from two regions of the USA, Region A (New England (NE), i.e., Rhode Island) and Region B (Midwest (MW), i.e., Wisconsin). Dogs were infected on Day 0 with up to 30 Ixodes scapularis ticks per dog. Tick attachment was monitored daily and after nine days, remaining ticks were harvested and all dogs were treated with two topical applications of an approved acaricide observing a 30-day interval between applications. Dogs were monitored 21-days post-challenge for pyrexia, and the entire post-challenge period for clinical signs of Lyme disease (lameness, ataxia, anorexia, lymphadenopathy and depression).
Blood was collected from each dog weekly to Day 28, then every two-weeks for the remainder of the study (166 days). Serum antibodies to Borrelia were assayed using SNAP-4Dx and QC6 ELISA. Two skin punch biopsies were collected near tick attachment sites from each dog every 28 days post-challenge for bacterial culture.
Comparisons included serology, skin culture results and joint pathology.

[4] = joints, skin, 8 dogs/group, necropsy

SMILES: CO/N=C(\C(=O)N[C@@H]1C(=O)N2C(C(=O)[O-])=C([C@@H]3CCCO3)CS[C@H]12)c1csc(N)n1.[Na+] [Convenia, (6R,7R)-7-[[(2Z)-(2-amino-4-thiazolyl)(methoxyimino)acetyl]-amino]-8-oxo-3-[(2S)-tetrahydro-2-furanyl]-5-thia-1-azabicyclo[4.2.0]oct-2-ene-2-carboxylic acid, monosodium salt]
- Number of Joints with Changes as Described for Lyme disease, Cumulative ([1]; 80 total/group): 6
- Number of Joints with Changes as Described for Lyme disease ([1]; Carpus L): 1
- Number of Joints with Changes as Described for Lyme disease ([1]; Carpus R): 1
- Number of Joints with Changes as Described for Lyme disease ([1]; Elbow L): 0
- Number of Joints with Changes as Described for Lyme disease ([1]; Elbow R): 1
- Number of Joints with Changes as Described for Lyme disease ([1]; Shoulder L): 0
- Number of Joints with Changes as Described for Lyme disease ([1]; Shoulder R): 0
- Number of Joints with Changes as Described for Lyme disease ([1]; Stifle L): 1
- Number of Joints with Changes as Described for Lyme disease ([1]; Stifle R): 2
- Number of Joints with Changes as Described for Lyme disease ([1]; Tarsus L): 0
- Number of Joints with Changes as Described for Lyme disease ([1]; Tarsus R): 0
- No Tissue Changes, # Dogs [1, 4]: 6
- No Tissue Changes, % [1, 4]: 75%
- Tissue Changes Described for Lyme Disease, # Dogs [1, 4]: two
- Tissue Changes Described for Lyme Disease, % [1, 4]: 25%
- Tissue Changes Described for Lyme Disease, # Dogs ([1]; joints, skin, 8 dogs/group, necropsy, listed as T04, monosodium salt): 2
- Incidence of joint lesions, lower than in dogs administered doxycycline or amoxicillin orally for 30 days ([1]; microscopic evaluation of articular joints): 2 fold
- Adverse or unexpected events [2]: No adverse or unexpected events
- Mean QC6 Antibody Levels ([3]; Group 4 Control (no ticks), Day 0): 0 U/mL
- Mean QC6 Antibody Levels ([3]; Group 4 Control (no ticks), Day 7): 0 U/mL
- Mean QC6 Antibody Levels ([3]; Group 4 Control (no ticks), Day 20): 0 U/mL
- Mean QC6 Antibody Levels ([3]; Group 4 Control (no ticks), Day 27): 0 U/mL
- Mean QC6 Antibody Levels ([3]; Group 4 Control (no ticks), Day 41): 0 U/mL
- Mean QC6 Antibody Levels ([3]; Group 4 Control (no ticks), Day 54): 0 U/mL
- Mean QC6 Antibody Levels ([3]; Group 4 Control (no ticks), Day 69): 0 U/mL
- Mean QC6 Antibody Levels ([3]; Group 4 Control (no ticks), Day 83): 0 U/mL
- Mean QC6 Antibody Levels ([3]; Group 4 Control (no ticks), Day 97): 0 U/mL
- Mean QC6 Antibody Levels ([3]; Group 4 Control (no ticks), Day 111): 0 U/mL
- Mean QC6 Antibody Levels ([3]; Group 4 Control (no ticks), Day 125): 0 U/mL
- Mean QC6 Antibody Levels ([3]; Group 4 Control (no ticks), Day 138): 0 U/mL
- Mean QC6 Antibody Levels ([3]; Group 4 Control (no ticks), Day 153): 0 U/mL
- Mean QC6 Antibody Levels ([3]; Group 4 Control (no ticks), Day 166): 0 U/mL
- Mean QC6 Antibody Levels ([3]; Group 5 NE Ticks, Day 0 (infestation)): 0 U/mL
- Mean QC6 Antibody Levels ([3]; Group 5 NE Ticks, Day 7 (pre-treatment)): 0 U/mL
- Mean QC6 Antibody Levels ([3]; Group 5 NE Ticks, Day 20 (pre-treatment)): 148.5 U/mL
- Mean QC6 Antibody Levels ([3]; Group 5 NE Ticks, Day 27 (pre-treatment)): 148.75 U/mL
- Mean QC6 Antibody Levels ([3]; Group 5 NE Ticks, Day 41 (pre-treatment)): 239.25 U/mL
- Mean QC6 Antibody Levels ([3]; Group 5 NE Ticks, Day 54 (pre-treatment)): 209.5 U/mL
- Mean QC6 Antibody Levels ([3]; Group 5 NE Ticks, Day 69 (pre-treatment)): 270.75 U/mL
- Mean QC6 Antibody Levels ([3]; Group 5 NE Ticks, Day 83 (first dose)): 122 U/mL
- Mean QC6 Antibody Levels ([3]; Group 5 NE Ticks, Day 97 (second dose)): 99.5 U/mL
- Mean QC6 Antibody Levels ([3]; Group 5 NE Ticks, Day 111): 48.25 U/mL
- Mean QC6 Antibody Levels ([3]; Group 5 NE Ticks, Day 125): 20.5 U/mL
- Mean QC6 Antibody Levels ([3]; Group 5 NE Ticks, Day 138): 7.75 U/mL
- Mean QC6 Antibody Levels ([3]; Group 5 NE Ticks, Day 153): 4.25 U/mL
- Mean QC6 Antibody Levels ([3]; Group 5 NE Ticks, Day 166): 3 U/mL
- Mean QC6 Antibody Levels ([3]; Group 6 MW Ticks, Day 0 (infestation)): 0 U/mL
- Mean QC6 Antibody Levels ([3]; Group 6 MW Ticks, Day 7 (pre-treatment)): 0 U/mL
- Mean QC6 Antibody Levels ([3]; Group 6 MW Ticks, Day 20 (pre-treatment)): 66.5 U/mL
- Mean QC6 Antibody Levels ([3]; Group 6 MW Ticks, Day 27 (pre-treatment)): 155 U/mL
- Mean QC6 Antibody Levels ([3]; Group 6 MW Ticks, Day 41 (pre-treatment)): 147.25 U/mL
- Mean QC6 Antibody Levels ([3]; Group 6 MW Ticks, Day 54 (pre-treatment)): 149.25 U/mL
- Mean QC6 Antibody Levels ([3]; Group 6 MW Ticks, Day 69 (pre-treatment)): 110.75 U/mL
- Mean QC6 Antibody Levels ([3]; Group 6 MW Ticks, Day 83 (first dose)): 93.75 U/mL
- Mean QC6 Antibody Levels ([3]; Group 6 MW Ticks, Day 97 (second dose)): 74.25 U/mL
- Mean QC6 Antibody Levels ([3]; Group 6 MW Ticks, Day 111): 51.5 U/mL
- Mean QC6 Antibody Levels ([3]; Group 6 MW Ticks, Day 125): 29 U/mL
- Mean QC6 Antibody Levels ([3]; Group 6 MW Ticks, Day 138): 22 U/mL
- Mean QC6 Antibody Levels ([3]; Group 6 MW Ticks, Day 153): 8.25 U/mL
- Mean QC6 Antibody Levels ([3]; Group 6 MW Ticks, Day 166): 6.5 U/mL
